The nature of this series: Multi-component pharmacokinetics in rat plasma after oral administration of RB, RPA or RB-RPA extracts (UPLC-HRMS, non-compartmental analysis). In kind it is in vivo, Sprague-Dawley rats. To be noted: for AUC0-t / AUC0-∞ / Cmax / t1/2 / tmax / AUC(0-inf) / half-life: rat plasma, mean ± SD, n = 7. Here is the method:
(Beijing, China, No. SCXK2018-0011). […] All rats were free to access the water and food until 12 h before the experiment. The animal study was reviewed and approved by the Experimental Animal Ethical Committee of Modern Research Center for Traditional Chinese Medicine, Shanxi University (animal ethic approval number: SXULL2018018), and all experimental procedures were carried out in accordance with the NIH Guide for the Care and Use of Laboratory Animals. After one week of adaptation, twenty-one rats were divided into three groups randomly, with seven rats in each group: 1) RPA group, were oral administration of Radix Paeoniae Alba extract (45 g-herb/kg); 2) RB group, were oral administration of Radix Bupleuri extract (45 g-herb/kg); 3) RB-RPA group, were oral administration of powder mixture of Radix Bupleuri and Radix Paeoniae Alba extracts (containing 45 g-herb/kg Radix Bupleuri and 45 g-herb/kg Radix Paeoniae Alba). […] Each group received intragastric administration with a volume of 10 ml/kg (rat body weight). […] All rats were free to access the water during the experiment. The blood samples at each time point were collected from seven rats. The blood samples were centrifuged at 4,000 rpm for 10 min and frozen at -80°C until analysis. Using a Thermo-Fisher Dionex UltiMate 3000 UHPLC system coupled with a Q Exactive Orbitrap-MS (Thermo-Fisher, United States) and Xcalibur workstation (Thermo-Fisher Scientific Inc.,Waltham, MA, United States) to acquire UPLC-HRMS raw data. Chromatographic separation of herb extracts and plasma samples was performed on an Acquity UPLC HSS T3 column (2.1 mm × 100 mm, 1.8 μm) maintained at 37°C. The flow rate was 0.2 ml/min and the injection volume was 5 μL. […] Mass spectrometry detection conditions were set as follows: the MS data were acquired under positive and negative ionization modes via heated electrospray ionization (HESI) source. […] The Q Exactive Orbitrap-MS has a fast positive and negative ion switching function, which could switch between positive-negative ion modes during the analysis of the same sample. So, we applied the method of switching ion modes in the detection process to quantify all analytes better. […] UPLC/MS/MS calibration and quantitation data were processed with Xcalibur workstation (Thermo-Fisher Scientific Inc., Waltham, MA, United States). For the eight components with standard reference, calculating their concentrations from the standard curves. For the other 30 components without standard reference, their concentrations were analyzed following the regression equations of homologous compounds ([Qiao et al., 2012]): paeoniflorin for P1 and M1 to M3; methylgallate for M4 to M10; saikosaponin […] and […]; saikosaponin […]; saikosaponin […]; saikosaponin B2 for P11 and M25 to […].

The mark [1] stands for this setting: oral RB single extract 45 g-herb/kg.
The mark [2] stands for this setting: oral RB-RPA mixed extracts (45 g-herb/kg RB + 45 g-herb/kg RPA).
Where [3] appears, read: oral administration of mixed extracts RB-RPA.
Setting [4] is: oral administration of single extract RPA.
The mark [5] stands for this setting: male, Sprague-Dawley, rat, plasma, po, 45 g/kg, oral RB single extract 45 g-herb/kg.

Where a name gives a salt, the structure may show the parent alone. Read-outs that look alike come from different tables or passages of the source.

Broadly, the Cmax is the peak of the concentration-time curve. The term AUC(0-inf) denotes total exposure, with the tail of the curve extrapolated. As usually defined, the half-life is the time in which the quantity being followed falls by half.

As to `C[C@H]1O[C@@H](O[C@@H]2CC[C@@]3(C)[C@@H](CC[C@]4(C)[C@@H]3C=C[C@]35OC[C@@]6(CCC(C)(C)C[C@H]63)[C@@H](O)C[C@]54C)[C@@]2(C)CO)[C@H](O)[C@@H](O)[C@H]1O` [Prosaikogenin G], under setting [1], the AUC0-t came to 10.10 ± 4.96 ng·h/mL, the “AUC0-∞” value was 11.33 ± 5.65 ng·h/mL, the highest concentration (Cmax) turned out to be 5.81 ± 2.73 ng/mL and the t1/2 amounted to 1.48 ± 0.50 h. Under setting [1], this compound showed a tmax of 0.79 ± 0.10 h. Besides, under setting [2], the AUC0-t was determined as 11.50 ± 5.88 ng·h/mL, the “AUC0-∞” value was 12.94 ± 6.57 ng·h/mL, the Cmax turned out to be 6.08 ± 3.17 ng/mL and the t1/2 is 1.48 ± 0.63 h. For the same compound, the tmax under setting [2] was found to be 0.75 ± 0.16 h.
Take `O=S(=O)(O)Oc1cccc(O)c1O` [Pyrogallol sulfate]: under setting [3], the AUC0-t worked out at 217.62 ± 126.82 ng·h/mL, the “AUC0-∞” value stood at 257.66 ± 175.61 ng·h/mL, the highest concentration (Cmax) was 24.16 ± 13.26 ng/mL and the t1/2 was 7.54 ± 3.63 h. The compound also displayed a tmax under setting [3] of 1.75 ± 0.61 h. Further, under setting [4], the AUC0-t stood at 164.21 ± 79.60 ng·h/mL, the “AUC0-∞” value turned out to be 187.63 ± 91.25 ng·h/mL, the Cmax turned out to be 18.42 ± 5.81 ng/mL and the t1/2 turned out to be 7.72 ± 3.81 h. Further, under setting [4], the tmax is 2.50 ± 0.78 h.
Take `CC1(C)CC[C@@]2(CO)C(=C3C=C[C@@H]4[C@@]5(C)CC[C@H](O)[C@@](C)(CO)[C@@H]5CC[C@@]4(C)[C@]3(C)C[C@H]2O)C1` [Saikogenin D]: under setting [1], the AUC0-t was 81.39 ± 36.37 ng·h/mL, the “AUC0-∞” value stood at 85.33 ± 40.21 ng·h/mL, the maximum concentration (Cmax) came out at 16.51 ± 8.25 ng/mL and the t1/2 is 5.10 ± 1.21 h. Under setting [1], this compound gave a tmax of 1.17 ± 0.26 h. Under setting [2], the AUC0-t is 131.78 ± 59.75 ng·h/mL, the “AUC0-∞” value is 141.32 ± 65.28 ng·h/mL, the Cmax stood at 19.75 ± 10.49 ng/mL and the t1/2 amounted to 5.78 ± 2.37 h. Also, under setting [2], the tmax worked out at 0.92 ± 0.20 h.
Consider `CC1(C)CC[C@]23CO[C@@]4(C=C[C@@H]5[C@@]6(C)CC[C@H](O)C(C)(C)[C@@H]6CC[C@@]5(C)[C@]4(C)C[C@@H]2O)[C@@H]3C1` [Saikogenin E], for which, under setting [1], the AUC0-t worked out at 34.53 ± 9.88 ng·h/mL, the “AUC0-∞” value was 38.46 ± 9.92 ng·h/mL, the Cmax is 12.31 ± 5.03 ng/mL and the t1/2 amounted to 3.40 ± 1.47 h. Under setting [1], this compound gave a tmax of 0.75 ± 0.16 h. Moreover, under setting [2], the AUC0-t was found to be 40.24 ± 15.68 ng·h/mL, the “AUC0-∞” value came to 45.24 ± 14.83 ng·h/mL, the Cmax came to 13.41 ± 6.28 ng/mL and the t1/2 is 3.99 ± 2.19 h. Besides, the tmax under setting [2] amounted to 0.79 ± 0.10 h.
`CC1(C)CC[C@]23CO[C@@]4(C=C[C@@H]5[C@@]6(C)CC[C@H](O)[C@@](C)(CO)[C@@H]6CC[C@@]5(C)[C@]4(C)C[C@@H]2O)[C@@H]3C1` [Saikogenin F]: under setting [1], the AUC0-t was determined as 156.14 ± 83.93 ng·h/mL, the “AUC0-∞” value stood at 159.01 ± 82.32 ng·h/mL, the Cmax came out at 30.25 ± 13.93 ng/mL and the t1/2 came out at 4.01 ± 1.88 h. The tmax under setting [1] was determined as 1.04 ± 0.25 h. Also, under setting [2], the AUC0-t was found to be 301.08 ± 199.77 ng·h/mL, the “AUC0-∞” value was found to be 347.02 ± 174.43 ng·h/mL, the Cmax amounted to 34.09 ± 17.25 ng/mL and the t1/2 is 6.80 ± 2.11 h. Under setting [2], the tmax was 1.17 ± 0.26 h.
On to `CC1(C)CC[C@]23CO[C@@]4(C=C[C@@H]5[C@@]6(C)CC[C@H](O)[C@@](C)(CO)[C@@H]6CC[C@@]5(C)[C@]4(C)C[C@H]2O)[C@@H]3C1` [Saikogenin G], for which, under setting [1], the AUC0-t is 50.01 ± 16.60 ng·h/mL, the “AUC0-∞” value stood at 57.20 ± 17.81 ng·h/mL, the Cmax worked out at 11.26 ± 4.74 ng/mL and the t1/2 came to 3.96 ± 1.59 h. Under setting [1], the tmax was determined as 0.75 ± 0.00 h. For the same compound, under setting [2], the AUC0-t was found to be 88.79 ± 41.87 ng·h/mL, the “AUC0-∞” value turned out to be 99.59 ± 41.70 ng·h/mL, the Cmax was 12.67 ± 4.42 ng/mL and the t1/2 came to 6.53 ± 2.21 h. For the same compound, the tmax under setting [2] was found to be 0.71 ± 0.10 h.
Regarding `C[C@H]1O[C@@H](O[C@H]2CC[C@@]3(C)[C@@H](CC[C@]4(C)[C@@H]3C=C[C@]35OC[C@@]6(CCC(C)(C)C[C@H]63)[C@@H](O)C[C@]54C)[C@]2(C)CO)[C@H](O)[C@@H](O[C@@H]2O[C@H](CO)[C@@H](O)[C@H](O)[C@H]2O)[C@H]1O` [Saikosaponin A], the area under the curve AUC(0-inf) reads like this: under setting [5], 104 ± 38.6 ng·h/mL; (male, Sprague-Dawley, rat, plasma, po, 45 g/kg, oral RB-RPA mixed extracts (45 g-herb/kg RB + 45 g-herb/kg RPA)) 176 ± 45.9 ng·h/mL. The half-life was 2.13 ± 0.43 h under setting [5] and 3.55 ± 0.57 h (male, Sprague-Dawley, rat, plasma, po, oral RB-RPA mixed extracts (45 g-herb/kg RB + 45 g-herb/kg RPA)). Also, the AUC0-t by setting is: (male, Sprague-Dawley, rat, plasma, po, 45 g/kg, oral RB single extract 45 g-herb/kg, read-out: AUC0-t) 102 ± 38.5 ng·h/mL; (male, Sprague-Dawley, rat, plasma, po, oral RB-RPA mixed extracts (45 g-herb/kg RB + 45 g-herb/kg RPA), read-out: AUC0-t) 170 ± 48.2 ng·h/mL. Moreover, the Cmax (male, Sprague-Dawley, rat, plasma, po, 45 g/kg, oral RB single extract 45 g-herb/kg, read-out: Cmax) was determined as 68.4 ± 16.9 ng/mL and the Cmax (male, Sprague-Dawley, rat, plasma, po, 45 g/kg, oral RB-RPA mixed extracts (45 g-herb/kg RB + 45 g-herb/kg RPA), read-out: Cmax) worked out at 46.5 ± 12.4 ng/mL. The tmax by setting is: (male, Sprague-Dawley, rat, plasma, po, 45 g/kg, oral RB single extract 45 g-herb/kg, read-out: tmax) 0.54 ± 0.1 h; (male, Sprague-Dawley, rat, plasma, po, oral RB-RPA mixed extracts (45 g-herb/kg RB + 45 g-herb/kg RPA), read-out: tmax) 0.63 ± 0.21 h. Besides, the “change of t1/2 after combination” value (rat, oral RB-RPA group vs single herbal group) is given as “longer”.
Turning to `C[C@H]1O[C@@H](O[C@H]2CC[C@@]3(C)[C@@H](CC[C@]4(C)[C@@H]3C=CC3=C5CC(C)(C)CC[C@]5(CO)[C@H](O)C[C@]34C)[C@]2(C)CO)[C@H](O)[C@@H](O[C@@H]2O[C@H](CO)[C@@H](O)[C@H](O)[C@H]2O)[C@H]1O` [Saikosaponin B2], under setting [1], the AUC0-t was found to be 65.14 ± 19.35 ng·h/mL, the “AUC0-∞” value worked out at 67.92 ± 19.39 ng·h/mL, the Cmax worked out at 22.33 ± 2.99 ng/mL and the t1/2 amounted to 2.70 ± 1.52 h. The compound also gave a tmax under setting [1] of 0.67 ± 0.13 h. Besides, under setting [2], the AUC0-t stood at 98.63 ± 18.36 ng·h/mL, the “AUC0-∞” value was determined as 104.39 ± 23.28 ng·h/mL, the peak concentration (Cmax) was 28.19 ± 5.50 ng/mL and the t1/2 amounted to 2.89 ± 1.14 h. Further, the tmax under setting [2] was 0.83 ± 0.20 h.
In the case of `C[C@@H]1O[C@@H](O[C@@H]2[C@H](O)[C@@H](O)[C@H](O[C@H]3CC[C@@]4(C)C(CC[C@]5(C)C4C=C[C@]46OC[C@@]7(CCC(C)(C)CC74)[C@@H](O)C[C@]65C)C3(C)C)O[C@@H]2CO[C@@H]2O[C@H](CO)[C@@H](O)[C@H](O)[C@H]2O)[C@H](O)[C@H](O)[C@H]1O` (stereo partly shown) [Saikosaponin C], under setting [1], the AUC0-t was 38.82 ± 9.84 ng·h/mL, the “AUC0-∞” value came to 42.15 ± 8.73 ng·h/mL, the peak concentration (Cmax) came out at 31.12 ± 11.08 ng/mL and the t1/2 came to 2.07 ± 1.12 h. The compound further had a tmax under setting [1] of 0.50 ± 0.16 h. Besides, under setting [2], the AUC0-t stood at 51.33 ± 16.19 ng·h/mL, the “AUC0-∞” value was determined as 53.67 ± 16.16 ng·h/mL, the Cmax was determined as 20.63 ± 5.65 ng/mL and the t1/2 was 2.53 ± 1.54 h. Besides, under setting [2], the tmax turned out to be 0.66 ± 0.30 h.

These data come from publication PMC7982521, “Studies on the Changes of Pharmacokinetics Behaviors of Phytochemicals and the Influence on Endogenous Metabolites After the Combination of Radix Bupleuri and Radix Paeoniae Alba Based on Multi-Component Pharmacokinetics and Metabolomics” (Frontiers in Pharmacology, 2021).
